According to the NIST ThermoML archive (doi:10.1016/j.jct.2016.08.002):
± gives the expanded uncertainty stated by the source.

Experiments:
[1] = for vapor or sublimation pressure: Transpiration method; for Normal melting temperature: DTA
[2] = Molar enthalpy of transition or fusion; conditions: Crystal; DSC

NC(=O)c1cccnc1 [3-pyridinecarboxamide]
[1], Crystal
Conditions | vapor or sublimation pressure [kPa]
353.2 K | 0.00036 ± 3e-05
358.3 K | 0.0006 ± 5e-05
363.4 K | 0.00104 ± 7e-05
363.5 K | 0.00105 ± 7e-05
370.6 K | 0.00207 ± 0.00015
378.6 K | 0.00436 ± 0.00028
383.8 K | 0.0069 ± 0.00049
388.8 K | 0.01096 ± 0.00074
394.9 K | 0.01844 ± 0.0012
398.9 K | 0.02467 ± 0.0016

Conditions | Normal melting temperature [°C]
[1], Crystal | 130.1 ± 1.1

Conditions | Molar enthalpy of transition or fusion [kcal/mol]
[2] | 5.71 ± 0.263

NC(=O)c1ccncc1 [4-pyridinecarboxamide]
[1], Crystal
Conditions | vapor or sublimation pressure [kPa]
358.2 K | 0.00043 ± 4e-05
363.3 K | 0.00072 ± 5e-05
368.4 K | 0.00117 ± 8e-05
373.4 K | 0.0019 ± 0.00013
373.5 K | 0.00191 ± 0.00013
378.5 K | 0.00296 ± 0.0002
383.7 K | 0.00472 ± 0.0003
388.7 K | 0.00724 ± 0.00048
393.8 K | 0.01115 ± 0.00074
398.8 K | 0.01672 ± 0.0011
404 K | 0.02482 ± 0.0016
409 K | 0.03719 ± 0.0024

Conditions | Normal melting temperature [°C]
[1], Crystal | 155.2 ± 1.1

Conditions | Molar enthalpy of transition or fusion [kcal/mol]
[2] | 5.52 ± 0.263

NC(=O)c1ccccn1 [2-pyridinecarboxamide]
[1]
Conditions | vapor or sublimation pressure [kPa]
343 K, Crystal | 0.0079 ± 0.0005
348 K, Crystal | 0.0125 ± 0.0008
353.1 K, Crystal | 0.0192 ± 0.0013
353.2 K, Crystal | 0.0194 ± 0.0013
358.2 K, Crystal | 0.0302 ± 0.002
363.3 K, Crystal | 0.0459 ± 0.003
368.3 K, Crystal | 0.0687 ± 0.0043
373.3 K, Crystal | 0.1028 ± 0.0065
385.4 K, Liquid | 0.2394 ± 0.015
390.4 K, Liquid | 0.3199 ± 0.02
395.5 K, Liquid | 0.416 ± 0.026
400.6 K, Liquid | 0.5427 ± 0.034
405.6 K, Liquid | 0.7049 ± 0.044
410.7 K, Liquid | 0.9324 ± 0.058
415.8 K, Liquid | 1.202 ± 0.074

Conditions | Normal melting temperature [°C]
[1], Crystal | 106.4 ± 1.1

Conditions | Molar enthalpy of transition or fusion [kcal/mol]
[2] | 4.59 ± 0.263
